Measured values as given in ChEMBL document CHEMBL3091356, “Salen and tetrahydrosalen derivatives act as effective inhibitors of the tumor-associated carbonic anhydrase XII--a new scaffold for designing isoform-selective inhibitors” (Bioorg Med Chem Lett, 2013).

Columns and labels:
Carbonic anhydrase 9 = Carbonic anhydrase 9 (Homo sapiens, UniProt Q16790)
Description: Inhibition of human recombinant carbonic anhydrase 9-mediated CO2 hydration preincubated for 15 mins by stopped-flow assay

Carbonic anhydrase 12 = Carbonic anhydrase 12 (Homo sapiens, UniProt O43570); experiment: Inhibition of human recombinant carbonic anhydrase 12-mediated CO2 hydration preincubated for 15 mins by stopped-flow assay
Carbonic anhydrase 1 = Carbonic anhydrase 1 (Homo sapiens, UniProt P00915); experiment: Inhibition of human recombinant carbonic anhydrase 1-mediated CO2 hydration preincubated for 15 mins by stopped-flow assay
Carbonic anhydrase 2 = Carbonic anhydrase 2 (Homo sapiens, UniProt P00918); experiment: Inhibition of human recombinant carbonic anhydrase 2-mediated CO2 hydration preincubated for 15 mins by stopped-flow assay

Chain of Carbonic anhydrase 1 (P00915 whole entry): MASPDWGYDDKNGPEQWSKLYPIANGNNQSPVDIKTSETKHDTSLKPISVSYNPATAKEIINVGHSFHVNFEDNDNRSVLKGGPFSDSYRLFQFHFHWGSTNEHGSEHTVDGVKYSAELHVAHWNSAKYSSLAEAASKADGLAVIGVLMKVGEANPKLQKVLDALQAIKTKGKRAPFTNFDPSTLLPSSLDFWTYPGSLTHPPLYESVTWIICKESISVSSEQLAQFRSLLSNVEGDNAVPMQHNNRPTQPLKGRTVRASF
Chain of Carbonic anhydrase 12 (O43570 whole entry): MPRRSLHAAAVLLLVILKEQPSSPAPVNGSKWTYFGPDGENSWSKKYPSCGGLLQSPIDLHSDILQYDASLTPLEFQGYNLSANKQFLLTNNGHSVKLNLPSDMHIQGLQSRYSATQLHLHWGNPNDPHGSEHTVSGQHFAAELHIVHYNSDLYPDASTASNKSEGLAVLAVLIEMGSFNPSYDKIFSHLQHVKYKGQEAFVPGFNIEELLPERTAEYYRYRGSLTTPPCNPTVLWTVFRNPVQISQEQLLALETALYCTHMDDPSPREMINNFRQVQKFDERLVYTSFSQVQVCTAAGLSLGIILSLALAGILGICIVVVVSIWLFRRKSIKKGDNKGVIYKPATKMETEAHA

Q: Which Ki (Carbonic anhydrase 9) does the source give for Oc1ccccc1/C=N/CCCCCC/N=C/c1ccccc1O here?
A: 4.35 µM

Q: What about the Ki (Carbonic anhydrase 12) of the same molecule?
A: 0.43 µM

Q: What about the Ki (Carbonic anhydrase 1) of the same molecule?
A: > 100 µM

Q: What about the Ki (Carbonic anhydrase 2) of the same molecule?
A: 3.6 µM

Q: Which results are given for Oc1ccccc1CNCCCNCc1ccccc1O?
A: Ki (Carbonic anhydrase 9): 3.37 µM; Ki (Carbonic anhydrase 12): 0.04 µM; Ki (Carbonic anhydrase 1): > 100 µM; Ki (Carbonic anhydrase 2): 0.39 µM

Q: What does the source list for Oc1ccccc1/C=N/c1ccccc1/N=C/c1ccccc1O?
A: Ki (Carbonic anhydrase 9): 2.45 µM; Ki (Carbonic anhydrase 1): > 100 µM

Q: What does the source list for Oc1ccccc1CNCCNCc1ccccc1O?
A: Ki (Carbonic anhydrase 9): > 100 µM; Ki (Carbonic anhydrase 1): > 100 µM

Q: Which Ki (Carbonic anhydrase 9) does the source give for O=[N+]([O-])c1ccccc1/C=N/CCCCCC/N=C/c1ccccc1[N+](=O)[O-] here?
A: > 100 µM

Q: What about the Ki (Carbonic anhydrase 1) of the same molecule?
A: > 100 µM

Q: And the Ki (Carbonic anhydrase 2)?
A: > 100 µM

Q: For Oc1ccccc1CNCCCCNCc1ccccc1O, which Ki (Carbonic anhydrase 9) is on record?
A: 4.37 µM

Q: What about the Ki (Carbonic anhydrase 1) of the same molecule?
A: > 100 µM

Q: For Oc1ccccc1CNCCCCCNCc1ccccc1O, which Ki (Carbonic anhydrase 9) is on record?
A: 4.19 µM

Q: What about the Ki (Carbonic anhydrase 1) of the same molecule?
A: > 100 µM

Q: Which results are given for Oc1ccccc1CNCCCCCCNCc1ccccc1O?
A: Ki (Carbonic anhydrase 9): 2.51 µM; Ki (Carbonic anhydrase 1): > 100 µM

Q: Oc1ccccc1CNc1ccccc1NCc1ccccc1O was tested. Which Ki (Carbonic anhydrase 9) did it give?
A: 0.22 µM

Q: What about the Ki (Carbonic anhydrase 1) of the same molecule?
A: > 100 µM

Q: How did the Ki (Carbonic anhydrase 9) turn out when Oc1ccccc1/C=N/CCCCC/N=C/c1ccccc1O was run?
A: 4.47 µM

Q: What about the Ki (Carbonic anhydrase 1) of the same molecule?
A: > 100 µM

Q: Which results are given for COc1cccc(/C=N/CC/N=C/c2cccc(OC)c2O)c1O?
A: Ki (Carbonic anhydrase 9): > 100 µM; Ki (Carbonic anhydrase 1): > 100 µM; Ki (Carbonic anhydrase 2): > 100 µM

Q: For Oc1ccccc1/C=N/CCC/N=C/c1ccccc1O, which Ki (Carbonic anhydrase 9) is on record?
A: 15.7 µM

Q: What about the Ki (Carbonic anhydrase 1) of the same molecule?
A: > 100 µM

Q: Oc1ccccc1/C=N/CCCC/N=C/c1ccccc1O was tested. Which Ki (Carbonic anhydrase 1) did it give?
A: > 100 µM

Q: How did the Ki (Carbonic anhydrase 9) turn out when Oc1ccccc1/C=N/CC/N=C/c1ccccc1O was run?
A: > 100 µM

Q: And the Ki (Carbonic anhydrase 12)?
A: 0.28 µM

Q: And the Ki (Carbonic anhydrase 1)?
A: > 100 µM

Q: And the Ki (Carbonic anhydrase 2)?
A: 1.72 µM
